Assay results: patent publication US4940790A, “5-(3-alkyl-5-tert.butyl-4-hydroxyphenyl)-2-amino-6H-1,3,4-thiadiazines” (Hoechst Aktiengesellschaft, priority 1987, dated 1990)
Structures can show the parent of a compound that is named as a salt. Where two headings read alike, the source gives them in different places.

Columns and labels:
[1] = system: adjuvant arthritis; experiment: Adjuvant arthritis (method of Pearson), reduction in the increase in paw volume; type: in vivo, male rats of a Wistar-Lewis strain; settings: Rattus norvegicus, po; for inhibition in vivo at 50 mg/kg: 50 mg/kg p.o., once daily day 1 to day 5, rats
Text: 1. […] The experimental animals used were male rats of a Wistar-Lewis strain having a body weight between 130 and 200 g. […] The animals in a control group received only the vehicle. Each preparation and control group comprised 8 animals. The criterion for action was the percentage reduction in the increase in paw volume compared to that of the untreated control group.

[2] = system: acetic acid stretching; experiment: Analgesic action: acetic acid stretching test; type: in vivo, female mice of a NMRI strain; settings: Mus musculus, 0.25 h; oral dose of 158 mg/kg, mice; read-out: Animals relieved of pain in %
Method: The analgesic action of the compounds of the formula I according to the invention was tested by means of the acetic acid stretching test on mice by the method of R. Koster et al., Fed. Prod. 18 (1959), p. 412.
The experimental animals used were female mice of a NMRI strain having a body weight (BW) between 21 and 28 g. Groups of 12 animals each received 0.1 ml/10 g of BW of a 0.6% strength acetic acid solution injected intraperitoneally. The test substances were administered 30 minutes beforehand. Immediately after the injection of acetic acid, the animals were placed alone and the number of typical stretching movements occurring within 15 minutes were counted, which comprise a brief tensing of the stomach muscles including the flank parts and subsequent stretching of the rear body and at least one read extremity.
The test substances were administered orally in a volume of 10 ml/kg of BW in a 1% strength aqueous carboxymethylcellulose (CMC) suspension.

[3] = Acute gastral ulcerogenity; design: species or system male Sprague-Dawley rats; settings: rat, in vivo, po
Method: 2. Acute gastral ulcerogenity
The investigation took place on 10 male Sprague-Dawley rats whose gastric mucous membrane had been sensitized by hunger stress. The body weight of the animals was between 200 and 300 g. While allowing free access to the drinking water, the feed was withdrawn from the animals 48 hours before administration of the test preparations until sacrifice of the animals. The rats were sacrificed 24 hours after oral substance administration, and the stomachs were removed, cleaned under running water and inspected for mucous membrane lesions. All macroscopically visible lesions were regarded as ulcers. The number of animals having ulcers was determined for each dose, and the UD50 values, i.e. the doses at which lesions were caused in 50% of the animals, were calculated from these figures by the method of Litchfield and Wilcoxon (J. Pharmacol. Exp. Ther. 96 (1949), p. 99).

[4] = in vivo; settings: mouse, ip; for LD50 at 168 h: read-out: Acute toxicity LD50
Method: The LD50 values were determined by a standard method from the mortality occurring within 7 days in NMRI (Naval Medical Research Institute) mice (6 animals per dose) after a single intraperitoneal (i.p.) administration.

[5] = target: T1, 5-lipoxygenase (Homo sapiens, UniProt P09917); experiment: Inhibition of 5-lipoxygenase: LTB4 formation in isolated polymorphonuclear human granulocytes; type: cell-based; settings: ionophor A 23 187, LTB4 by HPLC, 37° C.
T1 construct: in-vitro experiments on isolated polymorphonuclear human granulocytes; endogenous in cells; host or cells: isolated human polymorphonuclear granulocytes
T1 sequence (P09917 1-674): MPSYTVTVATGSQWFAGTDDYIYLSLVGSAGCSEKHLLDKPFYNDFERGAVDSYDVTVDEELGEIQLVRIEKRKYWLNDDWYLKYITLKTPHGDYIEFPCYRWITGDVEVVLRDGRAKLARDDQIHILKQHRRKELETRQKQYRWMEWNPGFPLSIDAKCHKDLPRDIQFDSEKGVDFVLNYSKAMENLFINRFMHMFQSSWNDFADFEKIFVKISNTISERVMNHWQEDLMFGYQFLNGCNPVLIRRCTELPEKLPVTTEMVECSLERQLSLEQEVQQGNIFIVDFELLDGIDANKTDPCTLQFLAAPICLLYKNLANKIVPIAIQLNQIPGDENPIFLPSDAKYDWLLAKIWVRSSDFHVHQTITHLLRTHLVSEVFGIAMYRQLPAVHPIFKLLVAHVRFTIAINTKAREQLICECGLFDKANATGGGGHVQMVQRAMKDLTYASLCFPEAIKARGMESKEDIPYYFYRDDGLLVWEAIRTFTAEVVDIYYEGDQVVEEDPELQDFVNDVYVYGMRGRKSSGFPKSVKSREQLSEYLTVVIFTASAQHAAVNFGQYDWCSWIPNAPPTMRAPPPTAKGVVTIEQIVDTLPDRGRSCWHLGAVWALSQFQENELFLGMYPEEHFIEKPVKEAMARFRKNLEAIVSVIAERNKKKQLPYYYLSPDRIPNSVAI
Method: 5. Inhibition of 5-lipoxygenase
The inhibitory action of the compounds according to the invention of 5-lipoxygenase-catalysed degradation of arachidonic acid was determined, as usual, in in-vitro experiments on isolated polymorphonuclear human granulocytes. To this purpose, the cells were incubated at 37° C. with the particular test preparation and the formation of pro-inflammatoryleukotriene B4 (LTB4) was induced after 5 minutes using the calcium ionophor A 23 187 (Calbiochem GmbH, Frankfurt/Main, FRG, Biochemical and Immunochemical Catalog 1985, p. 284). The amount of LTB4 liberated over a period of 10 minutes was determined quantitatively with the aid of a UV detector after separation by means of high-pressure liquid chromatography (HPLC).

[6] = system: Adriamycin-induced inflammation; experiment: Antioxidative action: inhibition of Adriamycin (doxorubicin) induced inflammation; type: in vivo, male Sprague-Dawley rats; settings: for Increase in paw volume: after 72 hours, control 390
Text: 4. Antioxidative action According to current opinion, aggressive oxygen radicals, which are formed to excess during the chronic inflammation process and, as highly toxic inflammation mediators themselves, perpetually maintain the connective tissue destruction proceeding via irreversible lipid peroxidation of the cell membranes, participate prominently in the progressive course, caused by a number of factors, of rheumatoid arthritis and other inflammatory disorders. As a result, antioxidatively active pharmaceuticals which are capable of deactivating these extremely cytotoxic oxygen radicals should allow specific intervention in the chronic course of the inflammation. A suitable animal model for this type of tissue destruction caused by oxygen radicals is Adriamycin (doxorubicin) induced inflammation in rats. The investigations were carried out by the method of D. M. Siegel et al. (Inflammation 4 (1980), p. 233) on male Sprague-Dawley rats having a body weight of between 200 and 230 g in groups each with 7 animals, which received 0.1 mg of Adriamycin, dissolved in 0.1 ml of 0.9% strength sodium chloride solution, by subcutaneous injection into the left rear paw. The increase in paw volume after 72 hours was determined by plethysmography measurement as a measure of the degree of inflammation. The test preparations were administered orally once daily on the 4 successive days, starting with the day of Adriamycin injection, in a 1% strength aqueous carboxymethylcellulose suspension.

Row | Structure (SMILES) | inhibition in vivo at 50 mg/kg [1] [%] | responders at 158 mg/kg [2] [%] | TD50 at 24 h [3] [mg/kg] | LD50 at 168 h [4] [mg/kg] | also measured
1 | Cc1cc(C2=NN=C(N(C)C)SC2)cc(C(C)(C)C)c1O [Example 3, 5-(5-tert.butyl-3-methyl-4-hydroxyphenyl)-2-dimethylamino-6H-1,3,4-thiadiazine hydrobromide] | 58 | 42 | > 200 | – | LD50 at 168 h ([4]; single i.p., NMRI mice, mortality within 7 days): 600 to 1200 mg/kg; IC50 [5]: 4 µM
2 | CC(C)(C)c1cc(C2=NN=C(N3CCCCC3)SC2)cc(C(C)(C)C)c1O [Example 18] | 74 | – | 100 | > 1200 | –
3 | CCCN(CCC)C1=NN=C(c2cc(C(C)(C)C)c(O)c(C(C)(C)C)c2)CS1 [Example 11] | 54 | – | 100 to 200 | > 1200 | –
4 | CC(C)(C)c1cc(C2=NN=C(NCc3ccccc3)SC2)cc(C(C)(C)C)c1O [Example 12] | 65 | – | > 200 | 600 to 1200 | –
5 | CCN(C1=NN=C(c2cc(C(C)(C)C)c(O)c(C(C)(C)C)c2)CS1)C(C)C [Example 10] | 82 | – | 200 | > 1200 | –
6 | CN(Cc1ccccc1)C1=NN=C(c2cc(C(C)(C)C)c(O)c(C(C)(C)C)c2)CS1 [Example 13] | 71 | 42 | > 200 | 600 to 1200 | –
7 | CN1CCN(C2=NN=C(c3cc(C(C)(C)C)c(O)c(C(C)(C)C)c3)CS2)CC1 [Example 20] | 72 | – | 200 | 150 to 300 | –
8 | CN(C)C1=NN=C(c2cc(C(C)(C)C)c(O)c(C(C)(C)C)c2)CS1 [Example 1, 5-(3,5-di-tert.butyl-4-hydroxyphenyl)-2-dimethylamino-6H-1,3,4-thiadiazinehydrobromide] | – | 83 | 200 | 600 to 1200 | inhibition in vivo at 12.5 mg/kg ([1]; * 12.5 mg/kg p.o., rats): 69%; ED50 ([1]; from the dose/action curve, p.o., rats, read-out: ED50 in adjuvant arthritis): 6 mg/kg; selectivity ratio [3]: ~33; Protective action ([6]; 25 mg/kg p.o.): 10%; Increase in paw volume ([6]; 25 mg/kg p.o.): 350 µL; Protective action ([6]; 50 mg/kg p.o., *Significance p <0.05): 69%; Increase in paw volume ([6]; 50 mg/kg p.o.): 120 µL; Protective effect against Adriamycin-induced tissue destruction (in words) ([6]; rats, oral): strong, dose-dependent protective effect; selectivity ratio ([4]; LD50 (i.p. mice) divided by ED50 (adjuvant arthritis, rats), read-out: LD50/ED50 quotient): ~150; IC50 [5]: 9 µM
